Measured values as given in patent US8119624B2, “Fused phenyl amido heterocyclic compounds” (Pfizer Inc., priority 2006, dated 2012).
pEC50: −log10 of the molar value. Like-named read-outs stand apart in the source and are kept apart here.

Target: T1, Full-length glucokinase (beta cell isoform) (Homo sapiens, UniProt P35557)
T1 construct: Full-length glucokinase (beta cell isoform) was His-tagged at N-terminus; His tag (N); made in house
T1 sequence (P35557 1-465): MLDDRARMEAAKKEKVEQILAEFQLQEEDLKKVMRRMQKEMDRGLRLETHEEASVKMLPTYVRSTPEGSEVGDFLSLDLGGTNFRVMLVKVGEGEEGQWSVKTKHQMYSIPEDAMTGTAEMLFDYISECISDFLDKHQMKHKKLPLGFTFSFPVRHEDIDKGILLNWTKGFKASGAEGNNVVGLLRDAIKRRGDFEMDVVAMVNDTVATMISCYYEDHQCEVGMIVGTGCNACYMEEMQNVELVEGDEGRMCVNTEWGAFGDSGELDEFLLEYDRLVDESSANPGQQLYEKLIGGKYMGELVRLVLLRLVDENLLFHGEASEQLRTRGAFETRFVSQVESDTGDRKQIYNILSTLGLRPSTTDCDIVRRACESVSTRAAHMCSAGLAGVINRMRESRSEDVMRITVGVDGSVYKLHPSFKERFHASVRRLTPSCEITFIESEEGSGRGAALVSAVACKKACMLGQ
Assay: Glucokinase biochemical assay (PK/LDH-coupled, NADH depletion at 340 nm): % activation, EC50, % max activation
Details: 5 mM glucose; for activation at 10 µM: read-out: % Activation at 10 uM; for pEC50: GK activation, read-out: EC50; for Emax: read-out: % Max Activation
Summary of the method: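 N-terminally His-tagged full-length human beta-cell glucokinase, room temperature, 5 mM glucose, 1 mM ATP, PK/LDH-coupled with 0.7 mM NADH, 1% DMSO final. Initial velocity from the 200–900 s slope of A340 decline. % activation = (Va/Vo−1)×100, measured across compound concentrations.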

[1] = 10 uM compound, % Activation=(Va/Vo−1)×100

Cc1ccc(NC(=O)c2cc(OCc3ccccc3)c3c(c2)C(=O)N(C2CC2)C3)nc1 [Example 378, 7-(Benzyloxy)-2-cyclopropyl-N-(5-methylpyridin-2-yl)-3-oxoisoindoline-5-carboxamide]
activation at 10 µM (compound at 10 uM, 1 mM ATP, room temperature): -1.85%

COc1cnc(NC(=O)c2cc(Oc3ccc(S(C)(=O)=O)cc3)c3cc(C(=O)N(C)C)oc3c2)cn1 [Example 287, N6-(5-Methoxypyrazin-2-yl)-N2,N2-dimethyl-4-[4-(methylsulfonyl)phenoxy]-1-benzofuran-2,6-dicarboxamide]
activation at 10 µM [1]: 80.3% | pEC50: 6.25 | Emax (fitted maximum activation): 169%

CN(C)C1CN(C(=O)c2ccc(Oc3cc(C(=O)Nc4ccn(C)n4)cc4c3CC(C)(C)O4)c(F)c2)C1 [Example 44, 4-[4-(3-Dimethylamino-azetidine-1-carbonyl)-2-fluoro-phenoxy]-2,2-dimethyl-2,3-dihydro-benzofuran-6-carboxylic acid(1-methyl-1H-pyrazol-3-yl)-amide]
activation at 10 µM [1]: 137% | pEC50: 6.24 | Emax (fitted maximum activation): 146%

CC(=O)N1CC(Oc2cc(C(=O)Nc3ccn(C)n3)cc3c2CC(C)(C)O3)C1 [Example 196, 4-(1-Acetyl-azetidin-3-yloxy)-2,2-dimethyl-2,3-dihydro-benzofuran-6-carboxylic acid (1-methyl-1H-pyrazol-3-yl)-amide]
activation at 10 µM [1]: 62% | pEC50: < 5.00

Cn1ccc(NC(=O)c2cc(OCC(=O)c3ccc(CO)cc3)c3c(c2)OC(C)(C)C3)n1 [Example 97, 4-[2-(4-Hydroxymethyl-phenyl)-2-oxo-ethoxy]-2,2-dimethyl-2,3-dihydro-benzofuran-6-carboxylic acid (1-methyl-1H-pyrazol-3-yl)-amide]
activation at 10 µM [1]: 131% | pEC50: 5.47 | Emax (fitted maximum activation): 123%

Cc1ccc(NC(=O)c2cc(Oc3cc(F)ccc3S(C)(=O)=O)c3c(c2)OC(C)(CO)C3)nc1 (stereo not shown) [Example 236, 4-(5-Fluoro-2-methanesulfonyl-phenoxy)-2-hydroxymethyl-2-methyl-2,3-dihydro-benzofuran-6-carboxylic acid (5-methyl-pyridin-2-yl)-amide]
activation at 10 µM [1]: 55.6% | pEC50: 5.57 | Emax (fitted maximum activation): 66%

Cc1ccc(NC(=O)c2cc(OC(C)C)cc3oc(C(=O)N4CCC4)cc23)nc1 [Example 349, 2-(Azetidine-1-carbonyl)-6-isopropoxy-N-(5-methylpyridin-2-yl)benzofuran-4-carboxamide]
activation at 10 µM [1]: -32.1%

Cn1ccc(NC(=O)c2cc(OCc3cc(O)nc(-c4cnccn4)n3)c3c(c2)OC(C)(C)C3)n1 [Example 88, 4-(6-Hydroxy-2-pyrazin-2-yl-pyrimidin-4-ylmethoxy)-2,2-dimethyl-2,3-dihydro-benzofuran-6-carboxylic acid (1-methyl-1H-pyrazol-3-yl)-amide]
activation at 10 µM [1]: 38.2%

CN(C)C(=O)c1ccc(Oc2cc(C(=O)Nc3ccn(C)n3)cc3c2CC(C)(C)O3)nc1 [Example 162, 6-[2,2-Dimethyl-6-(1-methyl-1H-pyrazol-3-ylcarbamoyl)-2,3-dihydro-benzofuran-4-yloxy]-N,N-dimethyl-nicotinamide]
activation at 10 µM [1]: 105% | pEC50: 5.80 | Emax (fitted maximum activation): 135%

Cc1csc2cc(C(=O)Nc3ccn(C)n3)cc(Oc3ccc(S(C)(=O)=O)cc3)c12 [Example 351, 3-Methyl-N-(1-methyl-1H-pyrazol-3-yl)-4-[4-(methylsulfonyl)-phenoxy]-1-benzothiophene-6-carboxamide]
activation at 10 µM [1]: 0.9%

Cc1csc2cc(C(=O)Nc3ccn(C)n3)cc(Oc3ccc(C(=O)N(C)C)cc3)c12 [Example 352, 4-{4-[(Dimethylamino)carbonyl]phenoxy}-3-methyl-N-(1-methyl-1H-pyrazol-3-yl)-1-benzothiophene-6-carboxamide]
activation at 10 µM [1]: 12.3%

CC1Cc2c(Oc3ccc(S(C)(=O)=O)cc3)cc(C(=O)Nc3ccn(C)n3)cc2O1 (single isomer, unassigned; (-)) [Example 12, (−)-4-(4-Methanesulfonyl-phenoxy)-2-methyl-2,3-dihydro-benzofuran-6-carboxylic acid(1-methyl-1H-pyrazol-3-yl)-amide]
% Activation at 10 uM [1]: 162% | pEC50: 5.52 | % Max Activation (fitted maximum activation): 195%

Cc1ccc(NC(=O)c2cc(Oc3ccc(S(C)(=O)=O)cc3)c3c(c2)OC(C)C3)nc1 (stereo not shown) [Example 10, 4-(4-Methanesulfonyl-phenoxy)-2-methyl-2,3-dihydro-benzofuran-6-carboxylic acid(5-methyl-pyridin-2-yl)-amide]
activation at 10 µM [1]: 98.7% | pEC50: 5.96 | Emax (fitted maximum activation): 122%

Cn1ccc(NC(=O)c2cc(Oc3cnc(C(=O)N4CCC4)nc3)c3c(c2)OC(C)(C)C3)n1 [Example 172, 4-[2-(Azetidine-1-carbonyl)-pyrimidin-5-yloxy]-2,2-dimethyl-2,3-dihydro-benzofuran-6-carboxylic acid (1-methyl-1H-pyrazol-3-yl)-amide]
activation at 10 µM [1]: 186% | pEC50: 6.32 | Emax (fitted maximum activation): 169%

Cn1ncc(NC(=O)c2cc(Oc3ccc(S(C)(=O)=O)cc3Cl)c3c(c2)OC(C)(C)C3)n1 [Example 119, 4-(2-Chloro-4-methanesulfonyl-phenoxy)-2,2-dimethyl-2,3-dihydro-benzofuran-6-carboxylic acid (2-methyl-2H-[1,2,3]triazol-4-yl)-amide]
activation at 10 µM [1]: 242% | pEC50: 6.37 | Emax (fitted maximum activation): 223%

Cc1ncsc1CCOc1cc(C(=O)Nc2ccn(C)n2)cc2c1CC(C)(C)O2 [Example 99, 2,2-Dimethyl-4-[2-(4-methyl-thiazol-5-yl)-ethoxy]-2,3-dihydro-benzofuran-6-carboxylic acid (1-methyl-1H-pyrazol-3-yl)-amide]
activation at 10 µM [1]: 112% | pEC50: 5.37 | Emax (fitted maximum activation): 136%

Cn1ccc(NC(=O)c2cc(Oc3ccc(C(=O)NC4CC4)c(F)c3)c3c(c2)OC(C)(C)C3)n1 [Example 73, 4-(4-Cyclopropylcarbamoyl-3-fluoro-phenoxy)-2,2-dimethyl-2,3-dihydro-benzofuran-6-carboxylic acid(1-methyl-1H-pyrazol-3-yl)-amide]
activation at 10 µM [1]: 254% | pEC50: 6.41 | Emax (fitted maximum activation): 232%

COCC1(C)Cc2c(Oc3ccc(C(=O)N4CCC4)c(F)c3)cc(C(=O)Nc3ccn(C)n3)cc2O1 (single isomer, unassigned; (-)) [Example 243, (−)-4-[4-(Azetidine-1-carbonyl)-3-fluoro-phenoxy]-2-methoxymethyl-2-methyl-2,3-dihydro-benzofuran-6-carboxylic acid (1-methyl-1H-pyrazol-3-yl)-amide]
activation at 10 µM [1]: 275% | pEC50: 7.39 | Emax (fitted maximum activation): 218%

Cc1ccc(NC(=O)c2cc(Oc3ccc(C(=O)N(C)C)cc3)c3c(c2)OC(C)(C)C3)nc1 [Example 150, 4-(4-Dimethylcarbamoyl-phenoxy)-2,2-dimethyl-2,3-dihydro-benzofuran-6-carboxylic acid (5-methyl-pyridin-2-yl)-amide]
activation at 10 µM [1]: 39.1% | pEC50: 6.96 | Emax (fitted maximum activation): 55%

Cc1cc2c(Oc3ccc(S(C)(=O)=O)cc3)cc(C(=O)Nc3ccn(C)n3)cc2s1 [Example 360, 4-(4-(Methylsulfonyl)phenoxy)-2-methyl-N-(1-methyl-1H-pyrazol-3-yl)benzo[b]thiophene-6-carboxamide]
activation at 10 µM [1]: 129% | pEC50: 6.21 | Emax (fitted maximum activation): 142%

Cc1ccc(NC(=O)c2cc(Oc3ccc(S(C)(=O)=O)cc3)c3c(c2)OC(C)(C)C3)nc1 [Example 3, 4-(4-Methanesulfonyl-phenoxy)-2,2-dimethyl-2,3-dihydrobenzofuran-6-carboxylic acid(5-methyl-pyridin-2-yl)-amide]
activation at 10 µM [1]: 145% | pEC50: 6.46 | Emax (fitted maximum activation): 140%

CN(C)C(=O)c1ccc(Oc2cc(C(=O)Nc3ccc(C(N)=O)cn3)cc3c2CC(C)(C)O3)cc1F [Example 146, 6-{[4-(4-Dimethylcarbamoyl-3-fluoro-phenoxy)-2,2-dimethyl-2,3-dihydro-benzofuran-6-carbonyl]-amino}-nicotinamide]
activation at 10 µM [1]: 25.1%

CC(C)Oc1cc(C(=O)Nc2ccn(C)n2)cc2c1CC(CN(C)C)O2 (stereo not shown) [Example 218, 2-Dimethylaminomethyl-4-isopropoxy-2,3-dihydro-benzofuran-6-carboxylic acid (1-methyl-1H-pyrazol-3-yl)-amide]
activation at 10 µM [1]: 43.1% | pEC50: < 5.00

Cc1ccc(NC(=O)c2cc(Oc3ccc(C(=O)N(C)C)c(F)c3)c3ccsc3c2)nc1 [Example 358, 4-(4-(Dimethylcarbamoyl)-3-fluorophenoxy)-N-(5-methylpyridin-2-yl)benzo[b]thiophene-6-carboxamide]
activation at 10 µM [1]: 50.4% | pEC50: 6.48 | Emax (fitted maximum activation): 56%

COC(=O)c1ccc(NC(=O)c2cc(Oc3ccc(S(C)(=O)=O)cc3)c3cc(C)oc3c2)nc1 [Example 264, Methyl 6-(2-methyl-4-(4-(methylsulfonyl)phenoxy)benzofuran-6-carboxamido)nicotinate]
activation at 10 µM [1]: 80.5% | pEC50: 5.89 | Emax (fitted maximum activation): 79%
